From US20090325986A1, “Deazapurine Analogs of 1'-Aza-L-Nucleosides” (priority 2005, published 2009) come the findings set out here.

Holding throughout (assay): biochemical
For experiment [1], the target named is bovine PNPase (Bos taurus, UniProt P55859). Conditions: for Ki: B. taurus PNPase. An excerpt:
(§1) The inhibition constants KI are the dissociation constants for the enzyme-inhibitor complex measured from initial reaction rates. For many, but not all, immucillin inhibitors, a slow-onset of inhibition then occurs consequent upon a time dependent conformational change in the enzyme that leads to tighter binding characterised by the constant KI* (J. F. Morrison and C. T. Walsh, Adv, Enzymol. Relat. Areas Mol. Biol., 1988, 61, 201-310).

Experiment [2] has as its target plasmodial PNPase (Plasmodium falciparum, UniProt Q8I3X4).
Description: as §1

Experiment [3] deals with human PNPase (Homo sapiens, UniProt P00491). The conditions noted are these: for Ki: H. sapiens PNPase.
Chain of human PNPase (P00491 whole entry): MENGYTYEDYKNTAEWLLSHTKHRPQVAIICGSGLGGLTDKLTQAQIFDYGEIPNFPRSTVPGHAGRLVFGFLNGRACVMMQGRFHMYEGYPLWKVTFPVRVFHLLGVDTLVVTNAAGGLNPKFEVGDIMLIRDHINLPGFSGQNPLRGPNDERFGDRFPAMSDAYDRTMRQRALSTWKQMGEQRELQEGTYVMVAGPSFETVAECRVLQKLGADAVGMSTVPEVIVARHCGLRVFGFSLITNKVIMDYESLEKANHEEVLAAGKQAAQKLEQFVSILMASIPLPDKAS
Description: as §1

Setting [4] is: Ki*, tighter binding after slow-onset inhibition.
Where [5] appears, read: Ki, dissociation constant of enzyme-inhibitor complex from initial reaction rates.
Where [6] appears, read: Ki, Plasmodium falciparum PNPase, dissociation constant of enzyme-inhibitor complex from initial reaction rates.

The term Ki denotes the dissociation constant of the complex between target and ligand, obtained from inhibition or displacement. A lower Ki goes with tighter binding.

Chain of plasmodial PNPase (Q8I3X4 whole entry): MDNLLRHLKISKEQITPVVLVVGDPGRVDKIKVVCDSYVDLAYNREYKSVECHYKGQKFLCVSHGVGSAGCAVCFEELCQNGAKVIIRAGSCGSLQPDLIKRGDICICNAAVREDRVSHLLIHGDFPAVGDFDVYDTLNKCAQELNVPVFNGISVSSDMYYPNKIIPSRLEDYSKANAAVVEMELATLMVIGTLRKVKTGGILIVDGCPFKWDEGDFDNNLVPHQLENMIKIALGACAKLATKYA
Chain of bovine PNPase (P55859 whole entry): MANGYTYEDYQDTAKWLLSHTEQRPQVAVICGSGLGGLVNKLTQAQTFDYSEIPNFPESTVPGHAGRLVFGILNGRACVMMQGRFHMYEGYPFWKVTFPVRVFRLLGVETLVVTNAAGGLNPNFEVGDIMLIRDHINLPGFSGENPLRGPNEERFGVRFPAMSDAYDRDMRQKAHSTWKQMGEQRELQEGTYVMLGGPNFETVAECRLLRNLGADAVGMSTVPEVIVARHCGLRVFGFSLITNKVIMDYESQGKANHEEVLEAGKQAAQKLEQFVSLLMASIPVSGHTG

As to `O=c1[nH]cnc2c(CN3C[C@H](CO)[C@@H](O)C3)c[nH]c12` [[(+)-10], reference compound], the inhibition constant (Ki) worked out at 0.11 ± 0.014 nM in experiment [1] (setting [4]), 2.1 ± 0.3 nM in experiment [1] (setting [5]) and 0.5 ± 0.04 nM in experiment [2] (setting [6]). Further, in experiment [2] (Plasmodium falciparum PNPase, tighter binding after slow-onset inhibition), the “Ki*” value was “Not observed”.
Consider `O=c1[nH]cnc2c(CN3C[C@@H](CO)[C@H](O)C3)c[nH]c12` [[(−)-10], (3S,4S)-1-[(9-Deazahypoxanthin-9-yl)methyl]-4-(hydroxymethyl)pyrrolidin-3-ol], for which the Ki in experiment [3] (setting [4]) came out at 0.68 ± 0.26 nM; in experiment [3] (setting [5]), 1.5 ± 0.1 nM; in experiment [1] (setting [4]), 0.5 ± 0.1 nM; in experiment [1] (setting [5]), 19 ± 5 nM; in experiment [2] (Ki*, Plasmodium falciparum PNPase, tighter binding after slow-onset inhibition), 80 ± 7 nM; in experiment [2] (setting [6]), 1700 ± 300 nM. Also, the type of inhibition result in experiment [3] (human PNP), in experiment [1] (bovine PNP) and in experiment [2] (Plasmodium falciparum PNP) was “slow onset tight binding inhibitor” each time.
